These results are taken from the NIST ThermoML archive (doi:10.1016/j.jct.2018.02.005).

± gives the expanded uncertainty stated by the source.

This data set can be described thus: refractive index (Na D-line) (dimensionless). The settings on record: 298.15 K; 100 kPa; Liquid; Standard Abbe refractometry.
For `CCO` [ethanol], the refractive index (usually a measure of how strongly the sample bends light) was 1.35947 ± 0.00033. On to `CO` [methanol], for which the refractive index was found to be 1.32655 ± 0.00031.

As to `CC(C)O` [propan-2-ol], the refractive index is 1.37503 ± 0.00033. Take `O` [water]: the refractive index turned out to be 1.33251 ± 0.00031.
